Like-named read-outs stand apart in the source and are kept apart here.
Experiments:
[1] = test system: acutely dissociated and purified rat OPCs; assay: Acute OL differentiation assay (MBP expression/cell, immunofluorescent image quantification); type: cell-based
Procedure, shortened: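 This acute differentiation assay used purified rat OPCs from postnatal day 6–7 pups, seeded into PDL/laminin-coated 96-well plates in differentiation medium lacking PDGF and FGF. Compounds were applied in quadruplicate after a 1–2 h preincubation at 37 °C, 10 % CO2, with 0.1 % DMSO negative and 40 ng/ml T3 positive controls in eight wells. After fixation on DIV4, anti-MBP immunofluorescence images yielded MBP expression/cell.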

expanded OPCs = assay: cells; details: for viability at 0.1 µM / viability at 1 µM / viability at 10 µM: Rattus norvegicus, 72 h
Procedure, shortened: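 Toxicity screen: compounds added at 0.1, 1 and 10 µM to PDGF-AA-expanded OPCs in 96-well plates, 3-day incubation at 37 °C, 10% CO2, then alamarBlue 1:10 for 4 h with fluorescence readout. Results set screening doses of 10/2, 2/0.4 or 0.4/0.08 µM.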

[2] = Rattus norvegicus, 0.4 uM test compound, relative to quetiapine, sheet "All OLga data", read-out: OL differentiation, 0.4 uM (% Quet)
[3] = read-out: 0.1 µM (% DMSO), alamarBlue viability of expanded OPCs, compound at 0.1 µM, sheet All Tox data
[4] = read-out: 1 µM (% DMSO), alamarBlue viability of expanded OPCs, compound at 1 µM, sheet All Tox data
[5] = read-out: 10 µM (% DMSO), alamarBlue viability of expanded OPCs, compound at 10 µM, sheet All Tox data
[6] = Rattus norvegicus, 2 uM test compound, relative to quetiapine, sheet "All OLga data", read-out: OL differentiation, 2 uM (% Quet)
[7] = Rattus norvegicus, 10 uM test compound, relative to quetiapine, sheet "All OLga data", read-out: OL differentiation, 10 uM (% Quet)
[8] = Rattus norvegicus, test compound at 2 uM, NCC library screen, sheet "All OLga data", relative to quetiapine, read-out: 2 uM (% Quet)
[9] = Rattus norvegicus, test compound at 10 uM, NCC library screen, sheet "All OLga data", relative to quetiapine, read-out: 10 uM (% Quet)
[10] = read-out: 0.1 µM (% DMSO), alamarBlue viability, NCC library compound at 0.1 µM, sheet "All Tox data"
[11] = read-out: 1 µM (% DMSO), alamarBlue viability, NCC library compound at 1 µM, sheet "All Tox data"
[12] = read-out: 10 µM (% DMSO), alamarBlue viability, NCC library compound at 10 µM, sheet "All Tox data"
[13] = test compound at 2 uM, NCC library screen, sheet "All OLga data", relative to quetiapine
[14] = test compound at 10 uM, NCC library screen, sheet "All OLga data", relative to quetiapine
[15] = alamarBlue viability, NCC library compound at 0.1 µM, sheet "All Tox data"
[16] = alamarBlue viability, NCC library compound at 1 µM, sheet "All Tox data"
[17] = alamarBlue viability, NCC library compound at 10 µM, sheet "All Tox data"
[18] = Rattus norvegicus, test compound at 0.4 uM, MBP expression relative to quetiapine, NCC library screen, sheet "All OLga data", read-out: 0.4 uM (% Quet)
[19] = Rattus norvegicus, test compound at 2 uM, MBP expression relative to quetiapine, NCC library screen, sheet "All OLga data", read-out: 2 uM (% Quet)
[20] = alamarBlue viability of expanded OPCs, compound at 0.1 µM, relative to DMSO control
[21] = alamarBlue viability of expanded OPCs, compound at 1 µM, relative to DMSO control
[22] = alamarBlue viability of expanded OPCs, compound at 10 µM, relative to DMSO control

Compound | viability at 0.1 µM (expanded OPCs; [3]) | viability at 1 µM (expanded OPCs; [4]) | viability at 10 µM (expanded OPCs; [5]) | activation at 2 µM [1, 6] | activation at 2 µM [1, 8] | viability at 0.1 µM (expanded OPCs; [10]) | viability at 1 µM (expanded OPCs; [11]) | viability at 10 µM (expanded OPCs; [12]) | further results
Clc1ccc(CO/N=C(\Cn2ccnc2)c2ccc(Cl)cc2Cl)c(Cl)c1 [Oxiconazole] | 131% | 195% | 11.7% |  |  |  |  |  | activation at 0.4 µM [1, 2]: 96.5%
Cc1c(O)cccc1C(=O)N[C@@H](CSc1ccccc1)[C@H](O)CN1C[C@H]2CCCC[C@H]2C[C@H]1C(=O)NC(C)(C)C [Nelfinavir] | 100% | 59% | 11.3% | -84.5% |  |  |  |  | activation at 0.4 µM [1, 2]: -21.8%
CC1(C)O[C@@H]2[C@@H](CO[C@@]3(COS(N)(=O)=O)OC(C)(C)O[C@@H]23)O1 [Topiramate] | 94% | 93.5% | 86.5% | 8.5% |  |  |  |  | activation at 10 µM [1, 7]: 0.05%
CC(C)[C@H]1CC[C@H](C(=O)N[C@H](Cc2ccccc2)C(=O)O)CC1 [Nateglinide] | 93.4% | 92.4% | 99.5% | -26.4% |  |  |  |  | activation at 10 µM [1, 7]: -12.7%
C/C=C1\[C@H]2C=C(C)C[C@]1(N)c1ccc(=O)[nH]c1C2 [Huperzine A] |  |  |  |  | -19.5% | 94.2% | 90% | 93.8% | activation at 10 µM [1, 9]: -60.7%
CN1CCCCC1CCN1c2ccccc2Sc2ccc([S+](C)[O-])cc21 (stereo not drawn) [Mesoridazine] | 82.1% | 76.6% | 28.3% | -3.1% |  |  |  |  | activation at 0.4 µM [1, 2]: 6.6%
Nc1nc(N)nc(-c2cc(Cl)ccc2Cl)n1 [Irsogladine] | 92.2% | 92.7% | 94.8% | 20.6% |  |  |  |  | activation at 10 µM [1, 7]: 6.1%
CC1CCN(CCCC(=O)c2ccc(F)cc2)CC1.Cl [Melperone hydrochloride] |  |  |  |  |  |  |  |  | 2 uM (% Quet) [1, 13]: 39.6 % Quet; 10 uM (% Quet) [1, 14]: 43.4 % Quet; 0.1 µM (% DMSO) (expanded OPCs; [15]): 105.5 % DMSO; 1 µM (% DMSO) (expanded OPCs; [16]): 130.9 % DMSO; 10 µM (% DMSO) (expanded OPCs; [17]): 151.7 % DMSO
COc1cc2nc(N3CCN(C(=O)C4COc5ccccc5O4)CC3)nc(N)c2cc1OC (stereo not drawn) [Doxazosin] |  |  |  |  |  |  |  |  | activation at 0.4 µM [1, 18]: 2%; activation at 2 µM [1, 19]: -27.2%; 0.1 µM (% DMSO) (expanded OPCs; [20]): 140.5 % DMSO; 1 µM (% DMSO) (expanded OPCs; [21]): 157.6 % DMSO; 10 µM (% DMSO) (expanded OPCs; [22]): 18.9 % DMSO
CC(=O)N1CCN(c2ccc(OCC3COC(Cn4ccnc4)(c4ccc(Cl)cc4Cl)O3)cc2)CC1 (stereo not drawn) [Ketoconazole] | 98.1% | 126% | 109% | 16.5% |  |  |  |  | activation at 10 µM [1, 7]: -67.7%
Cc1cccc(CN2CCN(C(c3ccccc3)c3ccc(Cl)cc3)CC2)c1 (stereo not drawn) [Meclizine] |  |  |  |  |  |  |  |  | activation at 0.4 µM [1, 18]: 96.7%; 0.1 µM (% DMSO) (expanded OPCs; [20]): 143.0 % DMSO; 1 µM (% DMSO) (expanded OPCs; [21]): 107.8 % DMSO; 10 µM (% DMSO) (expanded OPCs; [22]): 9.1 % DMSO
COc1ccc2[nH]c([S+]([O-])Cc3ncc(C)c(OC)c3C)nc2c1 (stereo not drawn) [Omeprazole] |  |  |  |  | -5.2% | 84.3% | 88.4% | 85.8% | activation at 10 µM [1, 9]: 5.2%
CN1C(=O)CN=C(c2ccccc2)c2cc([N+](=O)[O-])ccc21 [Nimetazepam] |  |  |  | 6.5% |  | 89.5% | 82.8% | 81.8% | activation at 10 µM [1, 7]: -0.15%
COCCCC/C(=N\OCCN)c1ccc(C(F)(F)F)cc1 [Fluvoxamine] | 79.1% | 67.7% | 40% | 23.1% |  |  |  |  | activation at 0.4 µM [1, 2]: 3.3%
CCCCN1CCCC1CNC(=O)c1cc(C#N)c2ccccc2c1OC (stereo not drawn) [Nafadotride] |  |  |  |  | 26.6% | 118% | 131% | 49.6% | activation at 0.4 µM ([1]; Rattus norvegicus, test compound at 0.4 uM, NCC library screen, sheet "All OLga data", relative to quetiapine, read-out: 0.4 uM (% Quet)): 7.6%
CCC1(c2ccccc2)C(=O)NCNC1=O [Primidone] |  |  |  |  | 1.4% | 86.9% | 89.5% | 82.3% | activation at 10 µM [1, 9]: 15.6%
C[C@]12CCC(=O)C=C1CC[C@@H]1[C@@H]2CC[C@@]2(C)[C@H]1CC[C@]2(C)O [Methyltestosterone] | 103% | 112% | 102% | -8.1% |  |  |  |  | activation at 10 µM [1, 7]: -36.5%
Nc1ccn([C@@H]2O[C@H](CO)[C@@H](O)[C@@H]2O)c(=O)n1 [Cytarabine] | 60.2% | 56.2% | 43.1% | 5.8% |  |  |  |  | activation at 0.4 µM [1, 2]: -18.7%
OC[C@H]1O[C@@H](n2cnc3c(NC4CCCC4)nc(Cl)nc32)[C@H](O)[C@@H]1O [CCPA] |  |  |  |  |  |  |  |  | 2 uM (% Quet) [1, 13]: -30.5 % Quet; 10 uM (% Quet) [1, 14]: -64.0 % Quet; 0.1 µM (% DMSO) (expanded OPCs; [15]): 87.1 % DMSO; 1 µM (% DMSO) (expanded OPCs; [16]): 88.1 % DMSO; 10 µM (% DMSO) (expanded OPCs; [17]): 93.0 % DMSO
O=C(O)COCCN1CCN(C(c2ccccc2)c2ccc(Cl)cc2)CC1 (stereo not drawn) [Cetirizine] |  |  |  |  | 9.7% | 92.3% | 89.3% | 87.4% | activation at 10 µM [1, 9]: 9.5%
C[C@]12CCC(=O)C=C1CC[C@@H]1[C@@H]2CC[C@@]2(C)[C@H]1CC[C@]2(O)C(=O)CO [Cortodoxone] |  |  |  |  | 2.2% | 92.3% | 99.6% | 96.1% | activation at 10 µM [1, 9]: 5.5%
Oc1ccc(/C=C/c2cc(O)cc(O)c2)cc1 [Resveratrol] |  |  |  |  | -34.1% | 83.2% | 87.6% | 76.7% | activation at 10 µM [1, 9]: -128%
COc1cc(C)nc(-n2nc(C)cc2OC)n1 [Epirizole] |  |  |  |  | -9.9% | 106% | 110% | 112% | activation at 10 µM [1, 9]: -10.5%
Oc1c(Cl)cc(Cl)c2cccnc12 [Chloroxine] |  |  |  |  |  |  |  |  | activation at 0.08 µM ([1]; Rattus norvegicus, test compound at 0.08 uM, NCC library screen, sheet "All OLga data", relative to quetiapine, read-out: 0.08 uM (% Quet)): -87.1%; 0.1 µM (% DMSO) (expanded OPCs; [20]): 24.3 % DMSO; 1 µM (% DMSO) (expanded OPCs; [21]): 10.2 % DMSO; 10 µM (% DMSO) (expanded OPCs; [22]): 8.9 % DMSO
CN[C@@H]1[C@H](O)[C@H](NC)[C@H]2O[C@@]3(O)C(=O)C[C@@H](C)O[C@H]3O[C@@H]2[C@H]1O [Spectinomycin] |  |  |  |  | 7.7% |  |  |  | activation at 10 µM [1, 9]: 18.9%; 0.1 µM (% DMSO) (expanded OPCs; [20]): 91.8 % DMSO; 1 µM (% DMSO) (expanded OPCs; [21]): 87.7 % DMSO; 10 µM (% DMSO) (expanded OPCs; [22]): 83.6 % DMSO
C[C@]12CC[C@H](O)CC1=CC[C@@H]1[C@@H]2CC[C@@]2(C)[C@H]1CC[C@]2(C)O [Methandriol] | 91.2% | 87.5% | 88% | 4.1% |  |  |  |  | activation at 10 µM [1, 7]: -0.6%
Brc1c(NC2=NCCN2)ccc2nccnc12 [Brimonidine] |  |  |  |  |  |  |  |  | activation at 2 µM [1, 19]: 21.9%; activation at 10 µM ([1]; Rattus norvegicus, test compound at 10 uM, MBP expression relative to quetiapine, NCC library screen, sheet "All OLga data", read-out: 10 uM (% Quet)): 8.8%; 0.1 µM (% DMSO) (expanded OPCs; [20]): 91.9 % DMSO; 1 µM (% DMSO) (expanded OPCs; [21]): 99.2 % DMSO; 10 µM (% DMSO) (expanded OPCs; [22]): 95.4 % DMSO
COC(=O)N1CCN(C(=O)Cc2ccc(Cl)c(Cl)c2)C(CN2CCCC2)C1 (stereo not drawn) [GR 89696] |  |  |  |  |  |  |  |  | 2 uM (% Quet) [1, 13]: 34.9 % Quet; 10 uM (% Quet) [1, 14]: 63.5 % Quet; 0.1 µM (% DMSO) (expanded OPCs; [15]): 94.6 % DMSO; 1 µM (% DMSO) (expanded OPCs; [16]): 83.7 % DMSO; 10 µM (% DMSO) (expanded OPCs; [17]): 70.7 % DMSO
COC(=O)CCc1ccc(OCC(O)CNC(C)C)cc1 (stereo not drawn) [Esmolol, reference compound] | 93.8% | 98.2% | 113% | 39.8% |  |  |  |  | activation at 10 µM [1, 7]: 29.6%; EC50 ([1]; Rattus norvegicus, average EC50 for induction of OL differentiation from independent biological replicates, eight concentrations): 240 µM; hit in OL differentiation assay, MRF-TMC ([1]; ● = confirmed hit in this paper's assay): ●

Reference: paper PMC5011342, “A high throughput drug screening assay to identify compounds that promote oligodendrocyte differentiation using acutely dissociated and purified oligodendrocyte precursor cells” (BMC Research Notes, 2016)
